Like-named read-outs stand apart in the source and are kept apart here.
Experiments:
HUVEC = HUVEC Cell Viability (CV) assay; assay type: cell-based, human; settings: Homo sapiens, alamarBlue
Experimental: Cells are seeded at 10,000 cells/well in 96-well plates in HUVEC specific cell culture media. Cells are plated and cultured overnight (16-24 h) at 37° C. After the overnight culture, cells are washed and fed with the Assay Medium. Test compounds are applied and incubated with the cells for the designated time period, after which the cell viability is measured by alamarBlue method. […] The final DMSO concentration is 1%.
Fluorescence readings are recorded after the test compound and alamarBlue incubation. The excitation and emission wavelengths are 530 nm and 590 nm, respectively.
The percent of control is calculated by comparing the readings in the presence of the test compound to the vehicle control. Subsequently, the percent inhibition is calculated by subtracting the percent control activity from 100. IC50 values (concentration causing a half-maximal inhibition of the control value) are determined by non-linear regression analysis of the concentration-response curves using the Hill equation.
The reference compound used for this assay is Staurosporine.

[1] = system: HUVEC (human umbilical venous endothelial cells); assay: HUVEC Tube Formation assay; assay type: cell-based
Experimental: HUVEC (human umbilical venous endothelial cells, 1.5×10^4/well, ATCC CRL-1730) are placed in an earlier prepared 96-well plate. Test substance and/or vehicle is then added to each well in a final concentration of 0.4% DMSO in growth medium under an atmosphere of 5% CO2 at 37° C. After an 18 h incubation period, morphology of the endothelial cell tubes, which resemble a capillary-like network, are evaluated by a confocal high-content imaging system. Disruption (anti-angiogenesis) of total tube length is measured from each photograph and determined relative to the vehicle control group. […] Compounds are screened at 30, 3, 0.3, 0.03 and 0.003 μM (or μg/mL) in triplicate.

[2] = system: SC-hCMs (stem cell cardiomyocytes); assay: Cardiomyocyte assay (CRL), iPSC cardiomyocytes; assay type: cell-based, human; settings: for ΔΔ Na Spike Amp at 10 μM, 48 h (%): corrected by time matched controls
Experimental: All measurements were performed at physiological temperature in a tissue culture incubator (37° C.; 5% CO2). Test article, positive controls and vehicle were added in a sterile tissue culture hood.
At least 10 h before compound addition SC-hCMs were exposed to the fresh culture medium. Before compound addition a one-minute recording of field potentials and impedance signals (baseline) was obtained. Test articles, vehicle and positive controls were added as a 2× concentration. One-minute recordings were obtained 0.5, 1, 2, 24 and 48 h after test article addition.
At the time of drug application, culture medium was added to an independent 96 well plate that was incubated in a tissue culture incubator for 48 h. This culture medium was used as the blank of the cTnI release assay.
After the 48 h exposure recording, 150 μL of each well was centrifuged to remove debris. The supernatant was collected and frozen for later cTnI content analysis using an ELISA plate according the manufacturer's instructions (Abcam, cat #ab200016).
Data was stored on the Charles River Laboratories computer network for off-line analysis. Data acquisition was performed using RTCA Cardio Software.
Data analysis was performed using RTCA Cardio Software, Microsoft Excel and Matlab scripts. Data were reported as mean±SEM.
The following field potential parameters were quantitated: Sodium Spike amplitude, Sodium Spike Rate, field potential duration (FPD), Bazett corrected field potential duration (FPDcB), and dysrhythmic events if present.
The following impedance parameters were quantitated: Cell Index, peak amplitude, relaxation from peak to 50% amplitude (Rel50) and twitch duration.
The sodium spike is the voltage signal produced by the propagation of the depolarizing wave (positive peak) and the local activation of sodium channels (negative peak). The sodium spike amplitude is the voltage difference (in […]) between the positive and negative peaks of the sodium spike. The Sodium Spike Rate is a measure of the rate of sodium spike generation (spikes/min) produced by the spontaneous beating of stem cell cardiomyocytes.
Abnormal rhythm activity was characterized by the presence of the following proarrhythmic markers:
Triggered activity: Triggered activity (TA) is activity characterized by the presence of voltage oscillations during the repolarization period (Early After Depolarizations, EADs) or after the repolarization is completed (Delayed After Depolarizations, DADs). They are produced by different mechanisms. EADs are due to reactivation of sodium and calcium currents due to prolongation of the action potential. DADs are due to transient releases of calcium from intracellular calcium stores. Both EADs and DADs can trigger action potentials (ectopic beats, EB).
Impedance instability: Impedance instability (II) consist of small oscillations of the impedance signal during the slower relaxation phase of the impedance twitch sometimes associated with small oscillations of the field potential (FPO). […] II informs about the possibility of drug-induced delayed repolarization setting the background where more robust proarrhythmic markers like EADs and DADs occur.
The SEM of the difference was calculated according to the following equation ΔΔSEM=(SEMtreatment2+SEMcontrol2)0.5.
The statistical analysis includes 1) a Student paired t-test to evaluate the changes respect to baseline and, 2) a multi-comparison analysis (Dunnett's test) of A % changes respect to time matched controls. An alpha probability of 0.05 was considered significant.

[3] = system: murine Hb9-GFP+ motor neurons in co-culture with ALS patient iAstrocytes; assay: Human iAstrocyte - murine Hb9-GFP+ motor neuron co-culture; assay type: cell-based, human iAstrocytes; settings: for rescue of motor neuron survival in co-culture with patient-derived iAstrocytes (FIG. 3): 72 hours co-culture, dose dependant, maximum responses close to positive control (1 μM Nilotinib); for efficacy at very high concentrations (motor neuron survival): potentially due to compound toxicity
Excerpt: iNPCs (induced Neuronal Progenitor Cells) were derived from ALS patient fibroblasts as described previously (Meyer et al. 20148). iNPCs were differentiated into iAstrocytes by culturing in iAsrocyte media for at least 5 days. Murine motor neurons expressing the green fluorescent protein (GFP) under the Hb9 motor neuron-specific promoter (called from now on Hb9-GFP+) were differentiated from murine embryonic stem cells via embryoid bodies (EBs), as previously described (Haidet-Phillips et al. 20119, Wichterle et al. 200210).
iNPCs and mESC were split into iAstrocyte media and mEB media respectively on the same day, such that iAstrocytes and motor neurons will have both differentiated for 7 days when seeded together in co-culture.
Changed media on iAstrocytes, and split using accutase if 90-100% confluent 3 days after seeding from iNPCs. iAstrocytes were left a further 2 days in iAstrocyte media until seeded onto 384-well plates.
Diluted fibronection 1:400 in PBS, and 5 μL added per well. The plate was incubated with fibronectin at room temp for at least 5 mins.
The media was removed from iAstrocytes, and washed in PBS. 1 mL accutase per 10 cm plate was added, and incubated at 37° C. for 4 mins. The plate was tapped to dislodge any remaining iAstrocytes. The iAstrocytes were resuspended in iAstro media, and centrifuged at 200×g for 4 mins. The supernatant was removed, the falcon was flicked to vortex the cells, and resuspended the cells in an appropriate amount of iAstrocyte media. Counted cells using the haemocytometer, and diluted cells to an appropriate dilution for seeding. Seeded 1-2,000 iAstrocytes in 35 μL media on fibronectin-coated 384-well plates. Centrifuged 384-well plates at 1,760×rpm for 60 s using a PK120 (ALC) centrifuged (in neurogenetics) to collect media and cells to base of wells. Plates were left for 24 h for iAstrocytes to adhere to plate.
Drugs were delivered in 100% drug-grade DMSO to iAstrocyte media using an Echo550 liquid handler (Labcyte). 384-well plates were centrifuged at 1,760×rpm for 60 s using a PK120 (ALC) centrifuge.
2 plates of EBs were collected in a 50 mL tube and centrifuged for 4 mins at 200×g. The supernatant was removed from EBs after centrifugation, and washed in 10 mL PBS then centrifuged again for 4 mins at 200×g, and PBS wash removed.
For each 50 mL tube, 2.75 mL EB dissociation buffer was added and then 250 μL 200 U/mL (10×) Papain. The solution was gently pipetted up and down 10 times, using a P1000 pipette, against the side of the falcon (EB pellet was not pipetted directly). 50 mL tube was put in 37° C. water bath and incubated for 5 mins. Tube removed every 3 mins and gently shaken. After 5 mins, additional 2 mL of EB dissociation and 100 μL 200 U/mL (10×) Papain were added, which was then pipette again 5 times with P1000 pipette, and returned to the water bath for another 5 mins. It was returned to water bath as before, and incubated for no longer than 15-20 mins.
Centrifuged for 5 mins at 300×g. Each 50 mL tube, 2.7 mL EB dissociation was prepared, to which 300 μL FBS and 150 μL 0.5 mg/mL DNaseI was added. The supernatant was removed from dissociated EBs and 3 mL of the FBS/DNaseI mix was added, pipetted up and down with P1000 pipette about 5 times. 5 mL FBS was added very slowly to the bottom of the falcon containing the dissociated EBs. The supernatant was removed and the cells very gently resuspended in about 3 mL MN media (more used if the pellet is large) and filtered through a 40 μm filter. 1 mL extra MN media was added to wash the filter.
2,500 murine Hb9-GFP+ motor neurons were seeded per well in 10 μL motor neuron media on top of the pre-treated iAstrocytes. 384-well plates were centrifuged at 1,760×rpm for 60 s using a PK120 (ALC) centrifuge.
Day8 15 μL motor neuron media were added per well. Hb9-GFP+ motor neurons were imaged using an INCELL analyser 2000 (GE Healthcare)—day 1 of co-culture. […]

[4] = system: α-synuclein in ReNcell VM Neuronal cells; assay: Modulation of α-synuclein aggregation; assay type: cell-based; settings: for amount of α-synuclein present in ReNcell VM neuronal cells (FIG. 4): 6 days of compound treatment, antibodies Syn205 and MJF-14; for IC50: ReNcell VM, 100% = reduction equal to 10 μM KU0063794, 0% = 0.1% DMSO
Experimental: Compounds were assessed for their ability to modulate α-synuclein aggregation. ReNcell VM Neuronal cells were transduced with α-synuclein encoded adenovirus, and compounds were added after 24 hours. After 72 hours, compound was refreshed. After an additional 72 h, cells were fixated (a total of 6 days of compound treatment). Two distinct α-synuclein antibodies were added (Syn205 and MJF-14), imaging was performed on IN Cell 2200 at 10× magnification. Immunoreactivity is quantified by a high content algorithm. Compound data is normalized to a negative control (0.1% DMSO) and a positive control (10 μM KU0063794; CAS 938440-64-3).

Cc1cn(-c2cc(NC(=O)c3ccc(C)c(Nc4nccc(-c5cccnc5)n4)c3)cc(C(F)(F)F)c2)cn1 [Comparative Example 3, 4-methyl-N-[3-(4-methylimidazol-1-yl)-5-(trifluoromethyl)phenyl]-3-[(4-pyridin-3-ylpyrimidin-2-yl)amino]benzamide, reference compound]
IC50 (HUVEC): 3.6 µM | GI50 ([1]; 18 h incubation, read-out: Tube formation GI50): > 10 µM | Proarrhythmic Markers at 10 μM, 48 h ([2]; 10 μM, 48 h): II and TA | ΔΔ Na Spike Amp at 10 μM, 48 h (%) ([2]; 10 μM, 48 h): −96.2%

Cc1ccc(C(=O)Nc2cnn(C(C)(C)C)c2)cc1C#Cc1cccnc1 [Example 10, N-(1-tert-butyl-1H-pyrazol-4-yl)-4-methyl-3-[2-(pyridin-3-yl)ethynyl]benzamide]
rescue of motor neuron survival in co-culture with patient-derived iAstrocytes (FIG. 3) [3]: rescue motor neuron survival

Cc1ccc(C(=O)Nc2cc3n(n2)CCC3(C)C)cc1C#Cc1cccnc1 [Example 26, N-(4,4-dimethyl-5,6-dihydropyrrolo[1,2-b]pyrazol-2-yl)-4-methyl-3-[2-(3-pyridyl)ethynyl]benzamide]
rescue of motor neuron survival in co-culture with patient-derived iAstrocytes (FIG. 3) [3]: rescue motor neuron survival | amount of α-synuclein present in ReNcell VM neuronal cells (FIG. 4) [4]: dose dependant reduction | IC50 [4]: 1 to 10 µM

Cc1ccc(C(=O)Nc2ccc(CN3CCN(C)CC3)c(C(F)(F)F)c2)cc1C#Cc1cnc2cccnn12 [Comparative Example 2, 3-(imidazo[1,2-b]pyridazin-3-ylethynyl)-4-methyl-N-[4-[(4-methyl-1-piperazinyl)methyl]-3-(trifluoromethyl)phenyl]benzamide, reference compound]
IC50 (HUVEC): 0.32 µM | GI50 ([1]; 18 h, read-out: Tube formation GI50 (μM)): 1.2 µM | Proarrhythmic Markers at 10 μM, 48 h ([2]; 10 μM, 48 h): Q and RV | ΔΔ Na Spike Amp at 10 μM, 48 h (%) ([2]; 10 μM, 48 h): (cells quiescent)

Cc1cn(-c2cc(NC(=O)c3ccc(C)c(Nc4nccc(-c5cccnc5)n4)c3)cc(C(F)(F)F)c2)cn1 [nilotinib, Nilotinib]
effect on sodium spike amplitude vs. control (given as reduction for nilotinib and Example 39) ([2]; 10 μM after 48 hours): 96.2% | proarrhythmic markers observed ([2]; 10 μM, 48 h): triggered activity and impedance instability

Cc1ccc(C(=O)Nc2cnn(C(C)C3CC3)c2)cc1C#Cc1cccnc1 (centres unmarked) [Example 17, N-[1-(1-cyclopropylethyl)-1H-pyrazol-4-yl]-4-methyl-3-[2-(pyridin-3-yl)ethynyl]benzamide]
rescue of motor neuron survival in co-culture with patient-derived iAstrocytes (FIG. 3) [3]: rescue motor neuron survival | efficacy at very high concentrations (motor neuron survival) [3]: reduction in efficacy at very high concentrations

Cc1ccc(C(=O)Nc2cnn(C(C)C)c2)cc1C#Cc1cccnc1 [Example 24, N-(1-isopropylpyrazol-4-yl)-4-methyl-3-[2-(3-pyridyl)ethynyl]benzamide]
rescue of motor neuron survival in co-culture with patient-derived iAstrocytes (FIG. 3) [3]: rescue motor neuron survival | efficacy at very high concentrations (motor neuron survival) [3]: reduction in efficacy at very high concentrations | amount of α-synuclein present in ReNcell VM neuronal cells (FIG. 4) [4]: dose dependant reduction | IC50 [4]: 1 to 10 µM

Reference: patent US20230014226A1, “NEW COMPOUNDS AND METHODS” (BenevolentAI Bio Limited, priority 2019, published 2023)
